Assay results reported in patent publication US11000033B2, “Ketone or oxime compound, and herbicide” (NISSAN CHEMICAL CORPORATION, priority 2014, dated 2021).

How the values were obtained:
Type in all cases: in vivo
Digitaria ciliaris = experiment: Test Example 4: herbicidal effect by soil treatment (symbol F); conditions: application herbicide amount 320 g/ha
Method in brief: (§1)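 Seeds were sown in sterilized diluvial soil, covered with about 1.5 cm of soil, and the soil surface was sprayed with a water-diluted emulsion of the compound at a predetermined rate. Plants grew in a greenhouse at 25° C. to 30° C.; effects were scored visually 3 weeks after application.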

Alopecurus myosuroides = experiment: Test Example 5: herbicidal effect by foliage application, plastic box (symbol J); conditions: 320 g/ha, 3 weeks after application
Method in brief: (§2)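 Emulsion formulation, diluted with water to the intended rate, was applied uniformly to leaves by small sprayer. Recipients were 14-day greenhouse-grown seedlings (25° C. to 30° C.). Assessment followed at 3 weeks.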

Apera spica-venti = experiment: Test Example 5: herbicidal effect by foliage application, plastic box (symbol L); conditions: 320 g/ha, 3 weeks after application
Method in brief: as §2

Scirpus juncoides = experiment: Test Example 2: herbicidal activity, application during weed generation in submerged conditions (symbol B); conditions: Table 23; application herbicide amount 320 g/ha; grade 0-5 by criteria of Test Example 1
Method in brief: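 Steps: fill pots with alluvial soil; add water to 4 cm depth; co-sow the three weeds; grow at 25° C. to 30° C. under glass; at 1–2 leaves, dose the floodwater with diluted emulsion; rate damage visually after 3 weeks.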

Stellaria media = experiment: Test Example 4: herbicidal effect by soil treatment (symbol P); conditions: application herbicide amount 320 g/ha
Method in brief: as §1

Monochoria vaginalis = experiment: Test Example 1: herbicidal activity, application before weed generation in submerged conditions (symbol C); conditions: application herbicide amount 320 g/ha
Method in brief: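 Weed control was rated three weeks after treatment on a 0–5 scale, from 5% or lower up to 90% or more. Pre-emergence water-surface application of diluted emulsion at a predetermined rate was made on the day of sowing, in flooded (4 cm water) pots containing rice seedlings, kept at 25–30 °C under glass.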

beet = experiment: Test Example 4: effect on crop by soil treatment (symbol f); conditions: application herbicide amount 320 g/ha
Method in brief: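 Diluvial soil (sterilized) in boxes; seeds placed spot-wise alongside weed species; ~1.5 cm covering soil. Greenhouse, 25–30° C.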

rice plant = experiment: Test Example 5: effect on crop by foliage application, plastic box (symbol b); conditions: 320 g/ha, 3 weeks after application
Method in brief: (§3)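 Box culture: sterile diluvial soil, seeds spot-sown, ~1.5 cm cover, raised under glass at 25–30° C.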

rapeseed = experiment: Test Example 5: effect on crop by foliage application, plastic box (symbol g); conditions: 320 g/ha, 3 weeks after application
Method in brief: as §3

[1] = test system: Echinochloa crus-galli var. crus-galli; experiment: Test Example 5: herbicidal effect by foliage application, plastic box (symbol H); conditions: 320 g/ha, 3 weeks after application
Method in brief: as §2

[2] = test system: Echinochloa crus-galli var. crus-galli; experiment: Test Example 4: herbicidal effect by soil treatment (symbol H); conditions: application herbicide amount 320 g/ha
Method in brief: as §1

Abutilon theophrasti = experiment: Test Example 5: herbicidal effect by foliage application, plastic box (symbol M); conditions: 320 g/ha, 3 weeks after application
Method in brief: as §2

| SMILES | F: Digitaria ciliaris, herbicidal effect grade (Digitaria ciliaris) | J: Alopecurus myosuroides, herbicidal effect grade (Alopecurus myosuroides) | L: Apera spica-venti, herbicidal effect grade (Apera spica-venti) | Herbicidal effect grade, B: Scirpus juncoides (Scirpus juncoides) | P: Stellaria media, herbicidal effect grade (Stellaria media) | Herbicidal effect grade, C: Monochoria vaginalis (Monochoria vaginalis) | f: beet, effect on crop grade (beet) | b: directly sowed rice plant, effect on crop grade (rice plant) | g: rapeseed, effect on crop grade (rapeseed) | H: Echinochloa crus-galli var. crus-galli, herbicidal effect grade [1] | H: Echinochloa crus-galli var. crus-galli, herbicidal effect grade [2] | M: Abutilon theophrasti, herbicidal effect grade (Abutilon theophrasti) |
| --- | --- | --- | --- | --- | --- | --- | --- | --- | --- | --- | --- | --- |
| CON=CC1CC(O)=C(c2c(C)cc(C)cc2C)C1=O (mixture of isomers) [3-001] | 2 (Herbicidal ratio of 20% or higher and lower than 40%) | 3 (Herbicidal ratio of 40% or higher and lower than 70%) | 3 (Herbicidal ratio of 40% or higher and lower than 70%) | 0 (Herbicidal ratio of 5% or lower (almost no effect)) | 0 (Herbicidal ratio of 5% or lower (almost no effect)) | 0 (Herbicidal ratio of 5% or lower (almost no effect)) | 0 (Herbicidal ratio of 5% or lower (almost no effect)) | 4 (Herbicidal ratio of 70% or higher and lower than 90%) | 0 (Herbicidal ratio of 5% or lower (almost no effect)) | 4 (Herbicidal ratio of 70% or higher and lower than 90%) | 0 (Herbicidal ratio of 5% or lower (almost no effect)) | 0 (Herbicidal ratio of 5% or lower (almost no effect)) |
| CON=C(C)C1CC(O)=C(c2c(C)cc(C)cc2C)C1=O (mixture of isomers) [3-002] | 0 (Herbicidal ratio of 5% or lower (almost no effect)) | 0 (Herbicidal ratio of 5% or lower (almost no effect)) | 0 (Herbicidal ratio of 5% or lower (almost no effect)) | 0 (Herbicidal ratio of 5% or lower (almost no effect)) | 0 (Herbicidal ratio of 5% or lower (almost no effect)) | 0 (Herbicidal ratio of 5% or lower (almost no effect)) | 0 (Herbicidal ratio of 5% or lower (almost no effect)) | 3 (Herbicidal ratio of 40% or higher and lower than 70%) | 0 (Herbicidal ratio of 5% or lower (almost no effect)) | 1 (Herbicidal ratio of 5% or higher and lower than 20%) | 0 (Herbicidal ratio of 5% or lower (almost no effect)) | 0 (Herbicidal ratio of 5% or lower (almost no effect)) |
| CCc1cc(-n2cc(Cl)cn2)cc(C)c1C1=C(O)CC(CC(C)=NOC)C1=O (mixture of isomers) [6-005] | 5 (Herbicidal ratio of 90% or more (almost completely withered)) | 5 (Herbicidal ratio of 90% or more (almost completely withered)) | 5 (Herbicidal ratio of 90% or more (almost completely withered)) | 2 (Herbicidal ratio of 20% or higher and lower than 40%) | 0 (Herbicidal ratio of 5% or lower (almost no effect)) | 3 (Herbicidal ratio of 40% or higher and lower than 70%) | 0 (Herbicidal ratio of 5% or lower (almost no effect)) | 5 (Herbicidal ratio of 90% or more (almost completely withered)) | 0 (Herbicidal ratio of 5% or lower (almost no effect)) | 5 (Herbicidal ratio of 90% or more (almost completely withered)) | 5 (Herbicidal ratio of 90% or more (almost completely withered)) | 5 (Herbicidal ratio of 90% or more (almost completely withered)) |
| CC#Cc1cc(C)c(C2=C(O)CC(CC(C)=NOC)C2=O)c(CC)c1 (mixture of isomers) [6-006] | 5 (Herbicidal ratio of 90% or more (almost completely withered)) | 5 (Herbicidal ratio of 90% or more (almost completely withered)) | 3 (Herbicidal ratio of 40% or higher and lower than 70%) | 5 (Herbicidal ratio of 90% or more (almost completely withered)) | 0 (Herbicidal ratio of 5% or lower (almost no effect)) | 1 (Herbicidal ratio of 5% or higher and lower than 20%) | 0 (Herbicidal ratio of 5% or lower (almost no effect)) | 4 (Herbicidal ratio of 70% or higher and lower than 90%) | 4 (Herbicidal ratio of 70% or higher and lower than 90%) | 4 (Herbicidal ratio of 70% or higher and lower than 90%) | 5 (Herbicidal ratio of 90% or more (almost completely withered)) | 0 (Herbicidal ratio of 5% or lower (almost no effect)) |
| CCc1cc(C#C[Si](C)(C)C)cc(C)c1C1=C(O)CC(CC(C)=NOC)C1=O (mixture of isomers) [6-008] | 5 (Herbicidal ratio of 90% or more (almost completely withered)) | 5 (Herbicidal ratio of 90% or more (almost completely withered)) | 3 (Herbicidal ratio of 40% or higher and lower than 70%) | 5 (Herbicidal ratio of 90% or more (almost completely withered)) | 0 (Herbicidal ratio of 5% or lower (almost no effect)) | 5 (Herbicidal ratio of 90% or more (almost completely withered)) | 0 (Herbicidal ratio of 5% or lower (almost no effect)) | 3 (Herbicidal ratio of 40% or higher and lower than 70%) | 0 (Herbicidal ratio of 5% or lower (almost no effect)) | 5 (Herbicidal ratio of 90% or more (almost completely withered)) | 5 (Herbicidal ratio of 90% or more (almost completely withered)) | 0 (Herbicidal ratio of 5% or lower (almost no effect)) |
| CC#Cc1cc(C)c(C2=C(O)CC(CC(C)=NOC)C2=O)c(C)c1 (mixture of isomers) [6-009] | 5 (Herbicidal ratio of 90% or more (almost completely withered)) | 5 (Herbicidal ratio of 90% or more (almost completely withered)) | 5 (Herbicidal ratio of 90% or more (almost completely withered)) | 0 (Herbicidal ratio of 5% or lower (almost no effect)) | 4 (Herbicidal ratio of 70% or higher and lower than 90%) | 0 (Herbicidal ratio of 5% or lower (almost no effect)) | 2 (Herbicidal ratio of 20% or higher and lower than 40%) | 5 (Herbicidal ratio of 90% or more (almost completely withered)) | 4 (Herbicidal ratio of 70% or higher and lower than 90%) | 5 (Herbicidal ratio of 90% or more (almost completely withered)) | 5 (Herbicidal ratio of 90% or more (almost completely withered)) | 3 (Herbicidal ratio of 40% or higher and lower than 70%) |
